Measurements from patent publication US6022969A, “Compositions and methods for treating mast-cell mediated conditions” (AXYS Pharmaceuticals, Inc., priority 1995, dated 2000).

Molecular target: tryptase
Assay: In vitro tryptase inhibition assay (hydrolysis of tosyl-Gly-Pro-Lys-p-nitroanilide)
Format: biochemical, human
Conditions: tosyl-Gly-Pro-Lys-p-nitroanilide 0.5 mM, pH 8.2, 1 h pre-incubation, room temperature
Method: The compounds to be assayed (approximately 1 mg) were dissolved in 200 μL dimethylsulfoxide (DMSO) and diluted 1:10 into buffer containing 50 millimolar (mM) Tris-HCl (pH 8.2), 100 mM sodium chloride, and 0.05% polyoxyethylenesorbitan monolaurate (Tween-20®, available from Sigma, St. Louis, Mo.). Seven additional threefold dilutions were made from the initial dilution into the same buffer supplemented with 10% DMSO. Aliquots (50 microliters, μL) from each of the eight dilutions in the series were transferred to individual wells in a 96-well U-bottom microtiter plate. 25 μL of a stock solution of tryptase was added to each well and the samples were mixed and incubated for one hour at room temperature (tryptase was purified from human lung and skin tissue preparations, HMC-1 (human mast cell line) and also obtained from commercial sources (ICN Biomedicals, Irvine, Calif.; Athens Research & Technology, Athens, Ga.)). […] The tryptase solution was prepared by placing 60 μg/mL of tryptase into solution with 10 mM MES (2-[N-Morpholino]ethane sulfonic acid) containing 2 mM CaCl2, 20% glycerol and 50 μg/mL heparin. The enzyme reaction was initiated with the addition of the synthetic tripeptide substrate, tosyl-Gly-Pro-Lys-p-nitroanilide (available from Sigma, 25 μL; 0.5 mM final concentration).
However, Ki ' varies with the enzyme concentration used in the enzyme assay. […] The y-intercept of a replot of IC50 (ordinate) versus tryptase concentration (abscissa) produces a value for Ki '.
The inhibition constants (Ki ', micromolar (μM)) were determined for the compounds of the present invention.

Row | Ki [nM] | Compound
1 | 302 | NCC12CCC(CNC(=O)N3CCN(C(=O)O[C@H]4CCC[C@@H](OC(=O)N5CCN(C(=O)NCC67CCC(CN)(CC6)CC7)CC5)CCC4)CC3)(CC1)CC2 (relative stereo) [Compound 15, cis-1,5-cyclooctylene[4-(4-aminomethylbicyclo[2.2.2]oct-1-ylmethylcarbamoyl)-1-piperazinecarboxylate]]
2 | 4 | N=C(N)Nc1ccc(CNC(=O)CNC(=O)OC[C@H]2CC[C@H](COC(=O)NCC(=O)NCc3ccc(NC(=N)N)cc3)CC2)cc1 [Compound 1, trans-1,4-Cyclohexylenedimethylene bis(4-guanidinobenzylcarbamoylmethylaminocarboxylate)]
3 | 2 | N=C(N)Nc1ccc(CNC(=O)CNC(=O)O[C@H]2CCC[C@@H](OC(=O)NCC(=O)NCc3ccc(NC(=N)N)cc3)CCC2)cc1 [Compound 2, cis-1,5-Cyclooctylene bis(4-guanidinobenzylcarbamoylmethylaminocarboxylate)]
4 | 15.8 | NC[C@H]1CC[C@H](CNC(=O)N2CCN(C(=O)O[C@H]3CCC[C@@H](OC(=O)N4CCN(C(=O)NC[C@H]5CC[C@H](CN)CC5)CC4)CCC3)CC2)CC1 [Compound 4, cis-1,5-Cyclooctylene bis[4-((trans-4-aminomethylcyclohexylenemethylene)carbamoyl)-1-piperazinecarboxylate]]
5 | 2 | N=C(N)N1CCC(CCC(=O)N2CCN(C(=O)O[C@H]3CCC[C@@H](OC(=O)N4CCN(C(=O)CCC5CCN(C(=N)N)CC5)CC4)CCC3)CC2)CC1 [Compound 5, cis-1,5-cyclooctylene bis{4-[3-(1-amidinopiperid-4-yl)propionoyl]-1-piperazinecarboxylate}]
6 | 0.37 | N=C(N)c1ccc(CCC(=O)N2CCN(C(=O)O[C@H]3CCC[C@@H](OC(=O)N4CCN(C(=O)CCc5ccc(C(=N)N)cc5)CC4)CCC3)CC2)cc1 [Compound 6, cis-1,5-cyclooctylene bis{4-[3(4-amidinophenyl)propionoyl]-1-piperazinecarboxylate}]
7 | 5 | N=C(N)N1CCC(CC(=O)N2CCN(C(=O)O[C@H]3CCC[C@@H](OC(=O)N4CCN(C(=O)CC5CCN(C(=N)N)CC5)CC4)CCC3)CC2)CC1 [Compound 7, cis-1,5-cyclooctylene bis{[4-(1-amidinopiperid-4-ylacetyl)-1-piperazinecarboxylate]}]
8 | 30 | N=C(N)N1CCC(CCNC(=O)N2CCN(C(=O)O[C@H]3CCC[C@@H](OC(=O)N4CCN(C(=O)NCCC5CCN(C(=N)N)CC5)CC4)CCC3)CC2)CC1 [Compound 8, cis-1,5-cyclooctylene bis{4-[2-(1-amidinopiperid-4-yl)ethylcarbamoyl]-1-piperazinecarboxylate}]
9 | 493 | NC[C@H]1CC[C@H](C(=O)N2CCN(C(=O)O[C@H]3CCC[C@@H](OC(=O)N4CCN(C(=O)[C@H]5CC[C@H](CN)CC5)CC4)CCC3)CC2)CC1 [Compound 9, cis-1,5-cyclooctylene bis[4-(trans-4-aminomethylcyclohexylcarbonyl)-1-piperazinecarboxylate]]
10 | 0.47 | N=C(N)Nc1ccc(CC(=O)N2CCN(C(=O)O[C@H]3CCC[C@@H](OC(=O)N4CCN(C(=O)Cc5ccc(NC(=N)N)cc5)CC4)CCC3)CC2)cc1 [Compound 10, cis-1,5-cyclooctylene bis[4-(4-guanidinophenylacetyl)-1-piperazinecarboxylate]]
11 | 207 | N=C(N)Nc1ccc(CCC(=O)N2CCN(C(=O)O[C@H]3CCC[C@@H](OC(=O)N4CCN(C(=O)CCc5ccc(NC(=N)N)cc5)CC4)CCC3)CC2)cc1 [Compound 11, cis-1,5-cyclooctylene bis[4-[3-(4-guanidinophenyl)propionyl]-1-piperazinecarboxylate}]
12 | 260 | NC[C@H]1CC[C@H](CNC(=O)N2CCCN(C(=O)O[C@H]3CCC[C@@H](OC(=O)N4CCCN(C(=O)NC[C@H]5CC[C@H](CN)CC5)CC4)CCC3)CC2)CC1 [Compound 12, cis-1,5-cyclooctylene bis[4-(trans-4-aminomethylcyclohexylmethylcarbamoyl)-1-(perhydro-7H-1,4-diazepine)carboxylate]]
13 | 0.13 | NCc1ccc(CNC(=O)N2CCN(C(=O)O[C@H]3CCC[C@@H](OC(=O)N4CCN(C(=O)NCc5ccc(CN)cc5)CC4)CCC3)CC2)cc1 [Compound 13, cis-1,5-cyclooctylene bis[4-(4-aminomethylbenzylcarbamoyl)-1-piperazinecarboxylate]]
14 | 1300 | NCCc1ccc(CNC(=O)N2CCN(C(=O)O[C@H]3CCC[C@@H](OC(=O)N4CCN(C(=O)NCc5ccc(CCN)cc5)CC4)CCC3)CC2)cc1 [Compound 14, cis-1,5-cyclooctylene bis{4-[4-(2-aminoethyl)benzylcarbamoyl]-1-piperazinecarboxylate]]
15 | 1.5 | NCCc1ccc(CC(=O)N2CCN(C(=O)O[C@H]3CCC[C@@H](OC(=O)N4CCN(C(=O)Cc5ccc(CCN)cc5)CC4)CCC3)CC2)cc1 [Compound 16]
16 | 4.9 | NCCc1ccc(C(=O)N2CCN(C(=O)O[C@H]3CCC[C@@H](OC(=O)N4CCN(C(=O)c5ccc(CCN)cc5)CC4)CCC3)CC2)cc1 [Compound 17, cis-1,5-cyclooctylene bis{4-[4-(2-aminoethyl)benzoyl]-1-piperazinecarboxylate]]
17 | 713 | CC(CN)c1ccc(C(=O)N2CCN(C(=O)O[C@H]3CCC[C@@H](OC(=O)N4CCN(C(=O)c5ccc(C(C)CN)cc5)CC4)CCC3)CC2)cc1 (stereo partly drawn) [Compound 18, cis-1,5-cyclooctylene bis{4-[4-(1-aminoprop-2-yl)benzoyl]-1-piperazinecarboxylate}]
18 | 1510 | NCCC1CCN(C(=O)N2CCN(C(=O)O[C@H]3CCC[C@@H](OC(=O)N4CCN(C(=O)N5CCC(CCN)CC5)CC4)CCC3)CC2)CC1 [Compound 19]
19 | 0.81 | NCC[C@H]1CC[C@H](CC(=O)N2CCN(C(=O)O[C@H]3CCC[C@@H](OC(=O)N4CCN(C(=O)C[C@H]5CC[C@H](CCN)CC5)CC4)CCC3)CC2)CC1 [Compound 20, cis-1,5-cyclooctylene bis{4-[trans-4-(2-aminoethyl)cyclohexylacetyl]-1-piperazinecarboxylate}]
20 | 9 | NCCC1CCC(C(=O)N2CCN(C(=O)O[C@H]3CCC[C@@H](OC(=O)N4CCN(C(=O)C5CCC(CCN)CC5)CC4)CCC3)CC2)CC1 (stereo partly drawn) [Compound 22, cis-1,5-cyclooctylene bis{4-[4-(2-aminoethyl)cyclohexylcarbonyl]-1-piperazinecarboxylate]]
21 | 119 | NCC1CCN(C(=O)NCC2CCN(C(=O)OC[C@H]3CC[C@H](COC(=O)N4CCC(CNC(=O)N5CCC(CN)CC5)CC4)CC3)CC2)CC1 [Compound 23, trans-1,4-cyclohexylenedimethylene bis{4-[4(aminomethyl)piperid-1-ylcarbonylaminomethyl]-1-piperidinecarboxylate}]
22 | 0.16 | N=C(N)c1ccc(CC(=O)N2CCN(C(=O)O[C@H]3CCC[C@@H](OC(=O)N4CCN(C(=O)Cc5ccc(C(=N)N)cc5)CC4)CCC3)CC2)cc1 [Compound 24, cis-1,5-cyclooctylene bis[4-(4-amidinophenylacetyl)-1-piperazinecarboxylate)]
23 | 734 | NCC1CCN(C(=O)NCCCCNC(=O)O[C@H]2CCC[C@@H](OC(=O)NCCCCNC(=O)N3CCC(CN)CC3)CCC2)CC1 [Compound 25, cis-1,5-cyclooctylene bis{4-[4-(aminomethyl)piperid-1-ylcarbonylamino]butylaminocarboxylate}]
24 | 332 | NCC1CCN(C(=O)NCC2CCN(C(=O)O[C@H]3CCC[C@@H](OC(=O)N4CCC(CNC(=O)N5CCC(CN)CC5)CC4)CCC3)CC2)CC1 [Compound 26, cis-1,5-cyclooctylene bis{4-[4-(aminomethyl)piperid-1-ylcarbonylaminomethyl)-1-piperidinecarboxylate}]
25 | 614 | N=C(N)N1CCC(CNC(=O)N2CCN(C(=O)O[C@H]3CCC[C@@H](OC(=O)N4CCN(C(=O)NCC5CCN(C(=N)N)CC5)CC4)CCC3)CC2)CC1 [Compound 27, cis-1,5-cyclooctylene bis[4-(1-amidinopiperid-4-ylmethylcarbamoyl)-1-piperazinecarboxylate]]
26 | 8.7 | N=C(N)c1ccc(CNC(=O)N2CCN(C(=O)O[C@H]3CCC[C@@H](OC(=O)N4CCN(C(=O)NCc5ccc(C(=N)N)cc5)CC4)CCC3)CC2)cc1 [Compound 28, cis-1,5-cyclooctylene bis[4-(4-amidinobenzylcarbamoyl)-1-piperazinecarboxylate}]
27 | 3.8 | N=C(N)Nc1ccc(CNC(=O)N2CCN(C(=O)OC3COC4C(OC(=O)N5CCN(C(=O)NCc6ccc(NC(=N)N)cc6)CC5)COC34)CC2)cc1 (stereo not drawn) [Compound 29, cis-2,6-(4,8-dioxabicyclo[3.3.0]octylene)bis[4-(4-guanidinobenzylcarbamoyl)-1-piperazinecarboxylate]]
28 | 8 | N=C(N)Nc1ccc(CNC(=O)N2CCN(C(=O)OCC3C4C=CC(CC4)C3COC(=O)N3CCN(C(=O)NCc4ccc(NC(=N)N)cc4)CC3)CC2)cc1 (stereo not drawn) [Compound 30, trans-2,3-bicyclo[2.2.2]oct-5-enylenedimethylene bis[4-(4-guanidinobenzylcarbamoyl)-1-piperazinecarboxylate]]
